Data set [1] has as its system FAO. The data set is described as follows: FAO (SC 150 and Max) entries of the compound data sheets.
Data set [2] has as its target T1, mtGPAT1 (Mus musculus, UniProt Q61586).
T1 construct: from tissue; host or cells: mitochondrial preparation
T1 sequence (Q61586 1-827): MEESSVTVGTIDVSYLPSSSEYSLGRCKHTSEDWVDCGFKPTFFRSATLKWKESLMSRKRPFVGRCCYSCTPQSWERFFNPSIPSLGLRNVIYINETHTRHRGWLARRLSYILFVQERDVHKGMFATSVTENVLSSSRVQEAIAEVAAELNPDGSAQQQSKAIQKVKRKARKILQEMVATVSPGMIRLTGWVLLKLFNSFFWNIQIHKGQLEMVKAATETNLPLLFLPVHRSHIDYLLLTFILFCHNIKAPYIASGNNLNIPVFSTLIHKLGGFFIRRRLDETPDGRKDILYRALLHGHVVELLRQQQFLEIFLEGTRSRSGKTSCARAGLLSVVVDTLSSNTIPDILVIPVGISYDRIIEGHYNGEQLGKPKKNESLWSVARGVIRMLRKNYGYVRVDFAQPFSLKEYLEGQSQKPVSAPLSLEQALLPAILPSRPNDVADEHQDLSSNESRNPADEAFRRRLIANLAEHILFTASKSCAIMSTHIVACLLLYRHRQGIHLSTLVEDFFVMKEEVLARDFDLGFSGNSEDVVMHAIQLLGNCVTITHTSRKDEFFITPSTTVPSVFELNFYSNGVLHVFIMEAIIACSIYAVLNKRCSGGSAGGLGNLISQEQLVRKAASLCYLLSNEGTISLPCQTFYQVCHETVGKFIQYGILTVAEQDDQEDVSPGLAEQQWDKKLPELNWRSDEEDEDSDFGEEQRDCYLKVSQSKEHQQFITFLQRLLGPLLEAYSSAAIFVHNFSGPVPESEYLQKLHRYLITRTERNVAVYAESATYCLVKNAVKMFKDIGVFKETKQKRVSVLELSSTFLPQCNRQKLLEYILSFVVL
Put plainly: In vitro mtGPAT inhibition: acylation of 14C-glycerol 3-phosphate with palmitoyl-CoA, scintillation counting. The format is biochemical. As for the experimental part:
The compounds produced as described above were evaluated for their ability to inhibit the acylation of glycerol-3-phosphate in vitro. The acylation reaction between ^14C-labelled glycerol-3-phosphate and palmitoyl-CoA, initiated by adding mtGPAT, was measured in the presence of varying concentrations of the inhibitor by scintillation counting as described in more detail below.
A mitochondrial preparation of glycerol 3-phosphate acyltransferase was added to the incubation mixture containing ^14C-labeled glycerol 3-phosphate, palmitoyl-CoA, and varying inhibitor concentrations to initiate the reaction. After ten min, the reaction was terminated by adding chloroform, methanol, and 1% perchloric acid. Five minutes later, more chloroform and perchloric acid were added, and the upper aqueous layer was removed. After washing three times with 1% perchloric acid, the organic layer was evaporated under nitrogen, and the amount of ^14C present was counted to determine the extent of reaction inhibition. Data points were recorded in triplicate, and IC50 values were calculated based on the amount of test inhibitor necessary to produce 50% of mtGPAT activity observed in the absence of inhibitor but in the presence of DMSO vehicle control.

Setting [3] is: compounds 4a-t and 7a-t, read-out: GPAT IC50.
The mark [4] stands for this setting: Table 1, sulfonamides 5a-f and 13a-f, triplicate, read-out: IC50 (μM) ± SD, In Vitro Anti-mtGPAT1 Activity.
The mark [5] stands for this setting: Table 2, sulfonamides 15a-i and 17a-f, triplicate, read-out: IC50 (μM) ± SD, In Vitro Anti-mtGPAT1 Activity.
[6] abbreviates: Table 3, sulfonamides 21a-c and 24a-f, triplicate, read-out: IC50 (μM) ± SD, In Vitro Anti-mtGPAT1 Activity.

Where two headings read alike, the source gives them in different places.

The term IC50 denotes the point on the concentration scale where inhibition reaches its midpoint. As usually defined, the melting point is the temperature, or range, at which the solid turns liquid.

For `CCCCCCCCS(=O)(=O)Nc1cc(-c2ccccc2Cl)ccc1C(=O)O`, the “FAO SC 150” value in data set [1] is given as “FAS (IC50) Not Tested CPT I Stim Not Tested FAO SC 150 Neg SA/MH (MIC) ug/ml”. Also, the IC50 in data set [2] (setting [3]) was 23.1 µM.
On to `CCCCCCCCS(=O)(=O)Nc1cc(-c2ccc(C#N)cc2)ccc1C(=O)O`, for which, in data set [1], the “FAO SC 150” value was “FAS (IC50) Not Tested CPT I Stim Not Tested FAO SC 150 Neg SA/MH (MIC) ug/ml”. Besides, the IC50 in data set [2] (setting [3]) is 20 µM.
On to `CCCCCCCCS(=O)(=O)Nc1cc(-c2cccc(C(C)=O)c2)ccc1C(=O)O`, for which the “FAO SC 150” value in data set [1] is reported as “FAS (IC50) Not Tested CPT I Stim Not Tested FAO SC 150 Neg SA/MH (MIC) ug/ml”. Further, the IC50 in data set [2] (setting [3]) was 29.2 µM.
Take `CCCCCCCCS(=O)(=O)Nc1ccc(-c2ccc(-c3ccccc3)cc2)cc1C(=O)O`: in data set [1], the “FAO SC 150” value is “FAS (IC50) Not Tested CPT I Stim Not Tested FAO SC 150 Neg SA/MH (MIC) ug/ml”. Moreover, the IC50 in data set [2] (setting [3]) worked out at 65.7 µM.
Taken in the same sequence, the figures for `CCCCCCCCS(=O)(=O)Nc1ccc(-c2ccccc2OC)cc1C(=O)O` were “FAS (IC50) Not Tested CPT I Stim Not Tested FAO SC 150 Neg SA/MH (MIC) ug/ml” and 23.4 µM.
The matching figures for `CCCCCCCCS(=O)(=O)Nc1ccc(-c2ccc(OC)cc2)cc1C(=O)O`: “FAS (IC50) Not Tested CPT I Stim Not Tested FAO SC 150 Neg SA/MH (MIC) ug/ml” and 19.1 µM.
The matching figures for `CCCCCCCCS(=O)(=O)Nc1ccc(-c2cccnc2)cc1C(=O)O`: “FAS (IC50) Not Tested CPT I Stim Not Tested FAO SC 150 Neg SA/MH (MIC) ug/ml” and 76.3 µM.
On to `CCCCCCCCS(=O)(=O)Nc1ccc(-c2cccs2)cc1C(=O)O`, for which the “FAO SC 150” value in data set [1] was “FAS (IC50) Not Tested CPT I Stim Not Tested FAO SC 150 Neg SA/MH (MIC) ug/ml”. Further, the IC50 in data set [2] (setting [3]) turned out to be 22.2 µM.
Taken in the same sequence, the figures for `CCCCCCCCS(=O)(=O)Nc1ccc(-c2ccc(C#N)cc2)cc1C(=O)O` were “FAS (IC50) Not Tested CPT I Stim Not Tested FAO SC 150 Neg SA/MH (MIC) ug/ml” and 24.6 µM.
The matching figures for `CCCCCCCCS(=O)(=O)Nc1ccc(-c2ccc(Cl)cc2Cl)cc1C(=O)O`: “FAS (IC50) Not Tested CPT I Stim Not Tested FAO SC 150 Neg SA/MH (MIC) ug/ml” and 17.2 µM.
Taken in the same sequence, the figures for `CCCCCCCCS(=O)(=O)Nc1ccc(-c2ccccc2O)cc1C(=O)O` were “FAS (IC50) Not Tested CPT I Stim Not Tested FAO SC 150 Neg SA/MH (MIC) ug/ml” and 63.4 µM.
Regarding `CCCCCCCCS(=O)(=O)Nc1ccc(-c2ccccc2F)cc1C(=O)O`, in data set [1], the “FAO SC 150” value is “FAS (IC50) Not Tested CPT I Stim Not Tested FAO SC 150 Neg SA/MH (MIC) ug/ml”. Moreover, the IC50 in data set [2] (setting [3]) stood at 31.2 µM.
For the compound `CCCCCCCCS(=O)(=O)Nc1ccc(-c2cccc(F)c2)cc1C(=O)O`, the “FAO SC 150” value in data set [1] is listed as “FAS (IC50) Not Tested CPT I Stim Not Tested FAO SC 150 Neg SA/MH (MIC) ug/ml”. In addition, in data set [2] (setting [3]), the IC50 was 52 µM.
In the case of `CCCCCS(=O)(=O)NCc1ccc(C(=O)O)cc1` [Compound 5a, 4-(Pentylsulfonamidomethyl)benzoic acid], the melting point lay within 188 to 189 °C. In addition, the IC50 in data set [2] (setting [4]) is 72 ± 1.7 µM.
Taken in the same sequence, the figures for `CCCCCCCCCS(=O)(=O)NCc1ccc(C(=O)O)cc1` [Compound 5b, 4-(Nonylsulfonamidomethyl)benzoic acid] were 178 to 180 °C and 43.9 µM.
The matching figures for `CCCCCS(=O)(=O)NCc1cccc(C(=O)O)c1` [Compound 5c, 3-(Pentylsulfonamidomethyl)benzoic acid]: 160 to 161 °C and 88.5 ± 1.7 µM.
Taken in the same sequence, the figures for `CCCCCCCCCS(=O)(=O)NCc1cccc(C(=O)O)c1` [Compound 5d, 3-(Nonylsulfonamidomethyl)benzoic acid] were 150 to 151 °C and 28.5 µM.
As for `CCCCCS(=O)(=O)NCc1ccccc1C(=O)O` [Compound 5e, 2-(Pentylsulfonamidomethyl)benzoic acid], the melting point stood at 100 °C. The IC50 in data set [2] (setting [4]) came to 61.9 ± 13.5 µM.
The matching figures for `CCCCCCCCCS(=O)(=O)NCc1ccccc1C(=O)O` [Compound 5f, 2-(Nonylsulfonamidomethyl)benzoic acid]: 79 to 82 °C and 22.7 µM.
The matching figures for `CCCCCS(=O)(=O)Nc1cccc(CP(=O)(O)O)c1` [Compound 13c, 3-(Pentylsulfonamido)benzylphosphonic acid]: 127 to 128 °C and 45.3 ± 9 µM.
Taken in the same sequence, the figures for `CCCCCCCCCS(=O)(=O)Nc1cccc(CP(=O)(O)O)c1` [Compound 13d, 3-(Nonylsulfonamido)benzylphosphonic acid] were 149 to 150 °C and 23.7 µM.
Turning to `CCCCCS(=O)(=O)Nc1ccc(CP(=O)(O)O)cc1` [Compound 13e, 4-(Pentylsulfonamido)benzylphosphonic acid], the melting point lay in the range of 198 to 200 °C. The IC50 in data set [2] (setting [4]) amounted to 47.7 ± 9.6 µM.
In turn, `CCCCCCCCCS(=O)(=O)Nc1cccc(C(=O)O)c1` [Compound 15d, 3-(Nonylsulfonamido)benzoic acid] gave a melting point of 183 to 184 °C. Besides, in data set [2] (setting [5]), the IC50 stood at 24.2 ± 2.9 µM.
The matching figures for `O=C(O)c1ccccc1NS(=O)(=O)c1ccccc1` [Compound 15h, 2-(Phenylsulfonamido)benzoic acid]: 213 to 215 °C and 40.5 ± 2.6 µM.
`CCCCCCCCCCCCCCS(=O)(=O)Nc1ccccc1C(=O)O` [Compound 24b, 2-(Tetradecylsulfonamido)benzoic acid]: the melting point is 120 to 122 °C. The IC50 in data set [2] (setting [6]) worked out at 6.9 ± 0.5 µM.
In turn, `CCCCCCCCCCCCCCCCS(=O)(=O)Nc1ccccc1C(=O)O` [Compound 24c, 2-(Hexadecylsulfonamido)benzoic acid] came in with a melting point of 126 to 128 °C. For the same compound, the IC50 in data set [2] (setting [6]) worked out at 7.8 ± 0.8 µM.
Taken in the same sequence, the figures for `CCCCCCCCS(=O)(=O)Nc1ccc(O)cc1C(=O)O` [Compound 24e, 5-Hydroxy-2-(octylsulfonamido)benzoic acid] were 142 to 144 °C and 38.2 ± 4.1 µM.
Taken in the same sequence, the figures for `CCCCCCCCS(=O)(=O)Nc1ccc(F)cc1C(=O)O` [Compound 24f, 5-Fluoro-2-(octylsulfonamido)benzoic acid] were 141 to 143 °C and 29.5 ± 2.6 µM.

For the origin of these results see patent publication US20120083471A1, “Novel Compounds, Pharmaceutical Compositions Containing Same, Methods of Use for Same, and Methods for Preparing Same” (priority 2008, published 2012).
